Activity calls are given as the source filed them. No cut-off for these calls is given here.
How the values were obtained:
Protein phosphatase 1A [1] = biological target: T1, Protein phosphatase 1A (Homo sapiens, UniProt P35813); experiment: Inhibition of recombinant human PPM1A using pNPP as substrate preincubated for 15 mins followed by substrate addition measured after 20 mins by absorbance based assay
T1 sequence (P35813 whole entry): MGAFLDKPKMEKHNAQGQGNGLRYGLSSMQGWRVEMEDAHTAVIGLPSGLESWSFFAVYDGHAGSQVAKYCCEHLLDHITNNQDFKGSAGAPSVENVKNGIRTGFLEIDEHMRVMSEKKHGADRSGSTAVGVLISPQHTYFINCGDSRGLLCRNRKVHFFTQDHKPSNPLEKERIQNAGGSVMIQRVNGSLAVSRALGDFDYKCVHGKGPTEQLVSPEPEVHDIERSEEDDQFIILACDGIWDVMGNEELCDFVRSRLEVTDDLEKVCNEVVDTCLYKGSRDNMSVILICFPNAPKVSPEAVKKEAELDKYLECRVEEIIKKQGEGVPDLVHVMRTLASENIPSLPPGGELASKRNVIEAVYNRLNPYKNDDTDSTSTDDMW

dsDNA [2] = experiment: Binding affinity to dsDNA (unknown origin) of 5 uM assessed as reduction in fluorescence intensity at 5 uM relative to control; assay type: nucleic-acid assay; set-up: scale not given: the % may be the effect or the level left
dsDNA [3] = experiment: Binding affinity to dsDNA (unknown origin) of 10 uM assessed as reduction in fluorescence intensity at 5 uM relative to control; assay type: nucleic-acid assay; set-up: scale not given: the % may be the effect or the level left
THP-1 [4] = experiment: Induction of DNA damage in human THP-1 monocytes assessed as increase in gamma-H2AX at 1 uM incubated for 24 hrs by Western blot analysis; assay type: toxicity, cell-based; settings: thp-1, 24 h
THP-1 [5] = experiment: Cytotoxicity against human THP-1 monocytes assessed as cell viability at 10 uM incubated for 24 hrs by flow cytometry; assay type: toxicity, cell-based; settings: thp-1, 24 h
THP-1 [6] = experiment: Induction of DNA damage in human THP-1 macrophages assessed as increase in gamma-H2AX at 10 uM incubated for 24 hrs by Western blot analysis; assay type: toxicity, cell-based; settings: thp-1, 24 h
[7] = Cytotoxicity against human THP-1 cells by resazurin dye based assay; assay type: toxicity, cell-based
[8] = Cytotoxicity against human Caco-2 cells by resazurin dye based assay; assay type: toxicity, cell-based
[9] = test system: Mycobacterium tuberculosis; experiment: Anti-mycobacterial activity against Mycobacterium tuberculosis mc2 6206 assessed as bacterial growth inhibition at 20 uM incubated for 5 days by resazurin dye based assay; assay type: functional, organism-based; settings: time 5.0 day
dsDNA [10] = experiment: Binding affinity to dsDNA (unknown origin) assessed as reduction in fluorescence intensity at 5 uM relative to control; assay type: nucleic-acid assay; set-up: scale not given: the % may be the effect or the level left
THP-1 [11] = experiment: Induction of DNA damage in human THP-1 monocytes assessed as increase in gamma-H2AX at 0.1 to 10 uM incubated for 24 hrs by Western blot analysis; assay type: toxicity, cell-based; settings: thp-1, 24 h, dose 0.1-10 µM
THP-1 [12] = experiment: Induction of DNA damage in human THP-1 macrophages assessed as increase in gamma-H2AX at 0.1 to 10 uM incubated for 24 hrs by Western blot analysis; assay type: toxicity, cell-based; settings: thp-1, 24 h, dose 0.1-10 µM
THP-1 [13] = experiment: Cytotoxicity against human THP-1 monocytes assessed as cell viability at 0.1 to 10 uM incubated for 24 hrs by flow cytometry; assay type: toxicity, cell-based; settings: thp-1, 24 h, dose 0.1-10 µM
THP-1 [14] = experiment: Cytotoxicity against human THP-1 macrophages assessed as cell viability at 0.1 to 10 uM incubated for 24 hrs by flow cytometry; assay type: toxicity, cell-based; settings: thp-1, 24 h, dose 0.1-10 µM
[15] = Toxicity in BALB/c mouse assessed as body weight change at 12.5 to 100 mg/kg, ip administered daily for 14 days; assay type: organism-based; settings: in vivo, 336 h, dose 12.5-100 mg/kg, time 14 day
[16] = Toxicity in BALB/c mouse assessed as increase in stress level at 100 mg/kg, ip administered daily for 14 days; assay type: organism-based; settings: in vivo, 336 h, time 14 day
[17] = Toxicity in BALB/c mouse assessed as increase in irritability at 100 mg/kg, ip administered daily for 14 days; assay type: organism-based; settings: in vivo, 336 h, time 14 day
[18] = Toxicity in BALB/c mouse assessed as visible abnormality at 12.5 to 50 mg/kg, ip administered daily for 14 days; assay type: organism-based; settings: in vivo, 336 h, dose 12.5-50 mg/kg, time 14 day
[19] = Toxicity in BALB/c mouse assessed as increase in brain weight at higher concentration administered intraperitoneally daily for 14 days; assay type: tissue-based; settings: in vivo, ip, 336 h, time 14 day
[20] = Toxicity in BALB/c mouse assessed as change in spleen weight at 12.5 to 100 mg/kg, ip administered daily for 14 days; assay type: organism-based; settings: in vivo, 336 h, dose 12.5-100 mg/kg, time 14 day
[21] = Toxicity in BALB/c mouse assessed as change in kidney weight at 12.5 to 100 mg/kg, ip administered daily for 14 days; assay type: organism-based; settings: in vivo, 336 h, dose 12.5-100 mg/kg, time 14 day
[22] = Toxicity in BALB/c mouse assessed as change in liver weight at 12.5 to 100 mg/kg, ip administered daily for 14 days; assay type: organism-based; settings: in vivo, 336 h, dose 12.5-100 mg/kg, time 14 day
[23] = Toxicity in BALB/c mouse assessed as change in lung weight at 12.5 to 100 mg/kg, ip administered daily for 14 days; assay type: organism-based; settings: in vivo, 336 h, dose 12.5-100 mg/kg, time 14 day
[24] = Half life in ICR mouse at 10 mg/kg, po measured for 24 hrs; assay type: ADME, organism-based; settings: in vivo
[25] = Tmax in ICR mouse at 10 mg/kg, po measured for 24 hrs; assay type: ADME, organism-based; settings: in vivo
[26] = Cmax in ICR mouse at 10 mg/kg, po measured for 24 hrs; assay type: ADME, organism-based; settings: in vivo
[27] = AUClast in ICR mouse at 10 mg/kg, po measured for 24 hrs; assay type: ADME, organism-based; settings: in vivo
[28] = AUC (infinity) in ICR mouse at 10 mg/kg, po measured for 24 hrs; assay type: ADME, organism-based; settings: in vivo
[29] = Oral bioavailability in ICR mouse at 10 mg/kg measured for 24 hrs; assay type: ADME, organism-based; settings: in vivo
[30] = Half life in ICR mouse at 2 mg/kg, iv measured for 24 hrs; assay type: ADME, organism-based; settings: in vivo
[31] = AUClast in ICR mouse at 2 mg/kg, iv measured for 24 hrs; assay type: ADME, organism-based; settings: in vivo
[32] = AUC (infinity) in ICR mouse at 2 mg/kg, iv measured for 24 hrs; assay type: ADME, organism-based; settings: in vivo
[33] = Clearance in ICR mouse at 2 mg/kg, iv measured for 24 hrs; assay type: ADME, organism-based; settings: in vivo
THP-1 [34] = experiment: Induction of autophagy in human THP-1 macrophages assessed as increase in p62 phosphorylation at S403 incubated for 24 hrs in presence of bafilomycin by Western blot analysis; assay type: functional, cell-based; settings: dose 0.25-8 µM
THP-1 [35] = experiment: Induction of autophagy in human THP-1 macrophages assessed as increase in lipidated LC3-II level at 0.25 to 8 uM incubated for 24 hrs in presence of bafilomycin by Western blot analysis; assay type: functional, cell-based; settings: dose 0.25-8 µM
[36] = Toxicity in BALB/c mouse infected with Mycobacterium tuberculosis mc2 6206 assessed as body weight loss at 12.5 to 50 mg/kg, ip administered daily for 8 days; assay type: organism-based; settings: in vivo, 192 h, dose 12.5-50 mg/kg, time 8 day
[37] = Toxicity in BALB/c mouse infected with Mycobacterium tuberculosis mc2 6206 assessed as visible toxic signs at 12.5 to 50 mg/kg, ip administered daily for 8 days; assay type: organism-based; settings: in vivo, 192 h, dose 12.5-50 mg/kg, time 8 day
[38] = test system: Mycobacterium tuberculosis; experiment: Anti-mycobacterial activity against Mycobacterium tuberculosis mc2 6206 infected in BALB/c mouse assessed as reduction in bacterial burden in spleen administered intraperitoneally daily for 8 days; assay type: functional, organism-based; settings: dose 12.5-50 mg/kg, route ip, time 8.0 day
[39] = test system: Mycobacterium tuberculosis; experiment: Inhibition of Mycobacterium tuberculosis mc2 6206 burden in lung of BALB/c mouse infected with at 12.5 to 50 mg/kg, ip administered daily for 8 days; assay type: functional, organism-based; settings: dose 12.5-50 mg/kg, time 8.0 day
Protein phosphatase 1A [40] = biological target: T1, Protein phosphatase 1A; experiment: Inhibition of PPM1A (unknown origin)
dsDNA [41] = experiment: Binding affinity to dsDNA (unknown origin) assessed as reduction in fluorescence intensity at 5 uM; assay type: nucleic-acid assay

For COc1ccc2c(c1)c[n+](Cc1cccc(O)c1)c1ccc(F)cc21, the IC50 (Protein phosphatase 1A [1]) was > 20 µM.
In the case of C[n+]1cc2c3c(ccc2c2ccc4cc5c(cc4c21)OCO5)OCO3 [SANGUINARIUM], the Activity (dsDNA [2]) is reported as 84%, the Activity (dsDNA [3]) is reported as 93% and the Activity (THP-1 [4]) is reported as “Toxic”. For the same compound, the Activity (THP-1 [5]) was “Toxic” and the Activity (THP-1 [6]) was “Toxic”.
With Cc1ccc2c(c1)c[n+](CCO)c1ccc(F)cc21 the IC50 (Protein phosphatase 1A [1]) was > 20 µM.
COc1ccc(-c2cc3c(cc2OC)c[n+](CCO)c2ccc(F)cc32)cc1 gave an IC50 (Protein phosphatase 1A [1]) of 0.29 µM, a CC50 [7] of 37.2 µM and a CC50 [8] of 74.6 µM.
Work on CCOc1ccc2c(c1)c[n+](CCO)c1ccc(F)cc21.[Br-] yielded an IC50 (Protein phosphatase 1A [1]) of 0.18 µM, a Ki (Protein phosphatase 1A [1]) of 0.59 µM and a CC50 [7] of 138 µM. The CC50 [8] was > 200 µM, the inhibition [9] was “inactive” and the Activity (dsDNA [10]) was 10%. The Activity (THP-1 [11]) was “Non-Toxic”, the Activity (THP-1 [12]) was “Non-Toxic” and the Activity (THP-1 [13]) was “Non-Toxic”. The Activity (THP-1 [14]) was “Non-Toxic”, the Activity [15] was “Non-Toxic” and the Activity [16] was “Toxic”. The Activity [17] was “Toxic”, the Activity [18] was “Non-Toxic” and the Activity [19] was “Toxic”. For the same compound, the Activity [20] was “Non-Toxic”, the Activity [21] was “Non-Toxic” and the Activity [22] was “Non-Toxic”. For the same compound, the Activity [23] was “Non-Toxic”, the half-life [24] was 46.3 min and the Tmax [25] was 15 min. It also gave a Cmax [26] of 0.908 µg/mL, an AUC(0-t) at 24 h [27] of 0.759 µg·h/mL and an AUC(0-inf) [28] of 0.761 µg·h/mL. The bioavailability [29] was 73.7%, the half-life [30] was 38 min and the AUC(0-t) at 24 h [31] was 0.206 µg·h/mL. The AUC(0-inf) [32] was 0.208 µg·h/mL, the clearance [33] was 10.2 L/h/kg and the Activity (THP-1 [34]) was “Dose-Dependent Effect”. For the same compound, the Activity (THP-1 [35]) was “Active”, the Activity [36] was “Non-Toxic” and the Activity [37] was “Non-Toxic”. The Activity [38] was “Dose-Dependent Effect” and the inhibition [39] was “inactive”.
In the case of COc1ccc2c(c1)c[n+](CCCCO)c1ccc(F)cc21, the IC50 (Protein phosphatase 1A [1]) is reported as > 20 µM.
In the case of COc1cc2c[n+](CCO)c3ccc(F)cc3c2cc1-c1ccc(F)cc1, the IC50 (Protein phosphatase 1A [1]) is reported as > 20 µM.
With COc1cc2c[n+](CCO)c3ccc(F)cc3c2cc1-c1ccc(NC(=O)OC(C)(C)C)cc1 the IC50 (Protein phosphatase 1A [1]) was > 20 µM.
COc1ccc2c(c1)c[n+](CCO)c1ccc(F)cc21.[Br-] showed an IC50 (Protein phosphatase 1A [40]) of 1.19 µM, a Ki (Protein phosphatase 1A [40]) of 0.84 µM and an IC50 (Protein phosphatase 1A [1]) of 1.19 µM. For the same compound, the CC50 [7] was 94.8 µM, the CC50 [8] was > 200 µM and the Activity (dsDNA [41]) was “inactive”. The Activity (THP-1 [11]) was “Non-Toxic”, the Activity (THP-1 [12]) was “Non-Toxic” and the Activity (THP-1 [13]) was “Non-Toxic”. The Activity (THP-1 [14]) was “Non-Toxic”.
With OCC[n+]1cccc2cc(F)ccc21 the IC50 (Protein phosphatase 1A [1]) was > 20 µM.
